Measured values: ChEMBL document CHEMBL3882736, “Modulation microtubules diseases; antiproliferative agents; antiinflamamtory agents” (2011)

Columns and labels:
[1] = Cytotoxicity against human PC3 cells assessed as growth inhibition at 20 uM after 40 hrs by MTT assay relative to control; type: functional; settings: PC-3, 40 h, read-out: GI
How it was run: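 Human tumour cells in late log phase, each in its own medium with 10% FBS, were added at 90 µL per well (1.1× final, 50000 to 200,000 cell/mL) to 10 µL compound (10× final) in 96-well plates, from screening plates prepared at 20 µM. Plates were incubated 40 hr at 37° C., 5% CO2, then MTT was added for 6 hours, lysed overnight with SDS/HCl and read at 590 nm. Growth inhibition is relative to control.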

[2] = target: Tubulin (Homo sapiens) (UniProt P68371+Q9H4B7+P0DPH7+P68366+Q13509+Q71U36+P04350+Q3ZCM7+P07437+P68363+Q9BQE3+Q6PEY2+Q13885+Q9BVA1+Q9BUF5); test: Inhibition of tubulin (unknown origin) polymerization at 50 uM by turbidometric method relative to control; type: protein-complex assay
How it was run: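 The inhibition of polymerisation reported here is expressed as percent of control. Polymerisation of microtubule protein of unstated origin, after incubation with compound at 0° C., was started with 1 mM GTP and heating to 37° C. and was tracked over time as absorbance at 340 nm in a thermostatically controlled spectrophotometer.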

inhibition [2] [%] | SMILES | inhibition of growth at 20 µM [1] [%]
> 50 | CCCC(Nc1cncc(-c2ccc(NC(=O)NCC)c(OC)c2)n1)c1cncc(C)c1 (configuration not stated) | > 50
> 50 | CCCC(Nc1cncc(-c2ccc(OCCCCN(CC)CC)c(OC)c2)n1)c1ccccc1 (configuration not stated) | > 50
– | CCCC(Nc1cncc(-c2ccc(C(=O)N3CCN(C)CC3)cc2)n1)c1ccccc1 (configuration not stated) | < 50
– | CCCC(Nc1cncc(-c2ccc(CN3CCN(C)CC3)cc2)n1)c1ccccc1 (configuration not stated) | < 50
– | CCCC(Nc1cncc(-c2ccc(OCCN(CC)CC)c(OC)c2)n1)c1cncc(C)c1 (configuration not stated) | < 50
> 50 | CCCC(Nc1cncc(-c2ccc(NC(=O)NCCN(C)C)c(OC)c2)n1)c1cccnc1 (configuration not stated) | > 50
– | CCCC(Nc1cncc(-c2ccc(NC(=O)c3cccnc3)c(OC)c2)n1)c1cccnc1 (configuration not stated) | < 50
– | CCCC(Nc1cncc(-c2ccc(CNC(=O)C3CCC(=O)N3)cc2)n1)c1ccccc1 (configuration not stated) | < 50
> 50 | CCCC(Nc1cncc(-c2ccc(O)c(OC)c2)c1)c1ccccc1 (configuration not stated) | > 50
> 50 | CCCC(Nc1cncc(-c2ccc(CNC(=O)C3CCNCC3)cc2)n1)c1ccccc1 (configuration not stated) | > 50
> 50 | CCCC(Nc1cncc(-c2ccc(OCCCn3ccnc3)c(OC)c2)n1)c1ccccc1 (configuration not stated) | > 50
> 50 | CCC[C@H](Nc1cc(-c2ccc(NC(=O)NCC)c(OC)c2)ncn1)c1cccnc1 | > 50
– | CCCC(Nc1nnc(C)c(-c2cc(OC)c(OC)c(OC)c2)n1)c1ccccc1 (configuration not stated) | < 50
> 50 | CCCC(Nc1cc(-c2ccc(O)c(OC)c2)ncn1)c1cccnc1 (configuration not stated) | > 50
> 50 | COc1cc(-c2cc(N[C@@H](C)c3ccccc3)ncn2)ccc1O | > 50
– | COc1cc(-c2ncc(C)c(NC(CCO)c3ccccc3)n2)ccc1O (configuration not stated) | < 50
> 50 | CCC[C@H](Nc1ccnc(-c2ccc(NC(=O)NCC)c(OC)c2)n1)c1cccnc1 | > 50
> 50 | CCCC(Nc1cncc(-c2ccc(OCCN(CC)CC)c(OC)c2)n1)c1ccccc1 (configuration not stated) | > 50
> 50 | CCNC(=O)Nc1ccc(-c2cncc(N[C@@H](COC)c3ccccc3)n2)cc1OC | > 50
> 50 | CCCC(Nc1nnc(C)c(-c2ccc(O)c(OC)c2)n1)c1ccccc1 (configuration not stated) | > 50
> 50 | CCC[C@H](Nc1nc(-c2ccc(O)c(OC)c2)ncc1C)c1cccnc1 | > 50
> 50 | CCC[C@H](Nc1cncc(-c2ccc(NC(=O)NCC)c(C)c2)n1)c1cccnc1 | > 50
> 50 | COc1cc(-c2cncc(NC(C)c3cccc(NC(=O)[C@H]4CCCN4)c3)n2)ccc1O (some centres not stated) | –
– | CCCC(Nc1cncc(-c2ccc(OCCCN3CCOCC3)c(OC)c2)n1)c1ccccc1 (configuration not stated) | > 50
– | CCCC(Nc1cncc(-c2ccc(C(=O)NCCCN3CCOCC3)cc2)n1)c1ccccc1 (configuration not stated) | < 50
> 50 | CC[C@H](Nc1nc(-c2ccc(O)c(OC)c2)ncc1C)c1cccnc1 | > 50

inhibition [2] [%] | SMILES | inhibition of growth at 20 µM [1] [%]
> 50 | CCNC(=O)Nc1ccc(-c2cncc(N[C@@H](CC)c3cccnc3)n2)cc1OC | > 50
> 50 | COc1cc(-c2nccc(N[C@@H](C)c3ccccc3)n2)ccc1O | > 50
– | CCCC(Nc1cncc(-c2ccc(OCCCN3CCOCC3)c(OC)c2)n1)c1cccnc1 (configuration not stated) | < 50
> 50 | CCNC(=O)Nc1ccc(-c2cncc(N[C@@H](COCC)c3ccccc3)n2)cc1OC | > 50
> 50 | CCCC(Nc1cncc(-c2ccc(NC(=O)NCC)c(OC)c2)n1)c1cccnc1 (configuration not stated) | > 50
> 50 | CCCC(Nc1cncc(-c2ccc(NC(=O)NCC)c(C)c2)n1)c1cccnc1 (configuration not stated) | > 50
> 50 | CCC[C@H](Nc1cncc(-c2ccc(NC(=O)NCC)c(OC)c2)n1)c1cccnc1 | > 50
> 50 | CCCC(Nc1cncc(-c2ccc(OCCCO)c(OC)c2)n1)c1ccccc1 (configuration not stated) | > 50
> 50 | CCNC(=O)Nc1ccc(-c2cncc(NC(CCOC)c3ccccc3)n2)cc1OC (configuration not stated) | > 50
> 50 | CCCC(Nc1cncc(-c2ccc(NC(=O)NCCCN3CCOCC3)c(OC)c2)n1)c1cccnc1 (configuration not stated) | > 50
– | CCCC(Nc1cncc(-c2ccc(NC(=O)NCC)cc2)n1)c1cccnc1 (configuration not stated) | < 50
> 50 | CCCC(Nc1cncc(-c2ccc(NC(=O)NCC)c(OC)c2)n1)c1cnccc1C (configuration not stated) | > 50
– | CCCC(Nc1cncc(-c2ccc(CN3CCCCC3)cc2)n1)c1ccccc1 (configuration not stated) | < 50
> 50 | CCCC(Nc1cncc(-c2ccc(CN)cc2)n1)c1ccccc1 (configuration not stated) | > 50
> 50 | CCCC(Nc1cncc(-c2ccc(OCCCN3CCN(C)CC3)c(OC)c2)n1)c1ccccc1 (configuration not stated) | > 50
– | CCC[C@H](Nc1cncc(-c2ccc(NC(=O)CN(C)C)c(OC)c2)n1)c1cccnc1 | > 50
> 50 | CC[C@H](Nc1cncc(-c2ccc(O)c(OC)c2)n1)c1ccccc1 | –
> 50 | CCCC(Nc1cncc(-c2ccc(OCCCN(CC)CC)c(OC)c2)n1)c1ccccc1 (configuration not stated) | > 50
– | CCCC(Nc1cncc(-c2ccc(CN3CCOCC3)cc2)n1)c1ccccc1 (configuration not stated) | < 50
– | CCCC(Nc1cncc(-c2ccc(CO)c(OC)c2)n1)c1cccnc1 (configuration not stated) | < 50
> 50 | CCNC(=O)Nc1ccc(-c2ncc(C)c(N[C@@H](CC)c3cccnc3)n2)cc1OC | > 50
> 50 | CCCC(Nc1cncc(-c2ccc(NC(=O)NCC)c(OC)c2)n1)c1cccnc1C (configuration not stated) | > 50
> 50 | COc1cc(-c2cncc(NC(C)c3ccc(-c4cccnc4)cc3)n2)ccc1O (configuration not stated) | –
> 50 | CCC[C@H](Nc1nc(-c2ccc(NC(=O)NCC)c(OC)c2)ncc1C)c1cccnc1 [LEXIBULIN] | > 50
> 50 | CCCC(Nc1cncc(-c2ccc(CN)c(OC)c2)n1)c1cccnc1 (configuration not stated) | > 50
> 50 | CCCC(Nc1cncc(-c2ccc(OCCCCN3CCCCC3)c(OC)c2)n1)c1ccccc1 (configuration not stated) | > 50

inhibition [2] [%] | SMILES | inhibition of growth at 20 µM [1] [%]
– | COc1cc(-c2nc(N[C@H](C)c3ccccc3)nnc2C)cc(OC)c1OC | < 50
> 50 | COc1cc(-c2cncc(NC(C)c3cccc(NC(=O)c4cccnc4)c3)n2)ccc1O (configuration not stated) | –
> 50 | CCCC(Nc1cncc(-c2ccc(OCCCCN3CCCC3)c(OC)c2)n1)c1ccccc1 (configuration not stated) | > 50
> 50 | CCCC(Nc1cncc(-c2ccc(NC(=O)NCC)c(OC)c2)n1)c1ccccn1 (configuration not stated) | > 50
– | COc1cc(-c2nc(N[C@H](C)c3ccccc3)nnc2C)ccc1O | < 50
– | CCCC(Nc1cncc(-c2ccc(C(=O)NCCCN(CC)CC)cc2)n1)c1ccccc1 (configuration not stated) | < 50
– | CCCC(Nc1cncc(-c2ccc(CN3CCC[C@H]3CO)cc2)n1)c1ccccc1 (some centres not stated) | < 50
> 50 | CCCC(Nc1cncc(-c2ccc(CNC(=O)C3CCCNC3)cc2)n1)c1ccccc1 (configuration not stated) | > 50
– | CCCC(Nc1cncc(-c2ccc(CN3CCC(O)CC3)cc2)n1)c1ccccc1 (configuration not stated) | < 50
> 50 | CCC[C@H](Nc1cncc(-c2ccc(NC(=O)NCC)c(OC)c2)n1)c1ccccc1 | > 50
– | CCCC(Nc1cncc(-c2ccc(C(=O)NCCCCCN)c(C)c2)n1)c1cccnc1 (configuration not stated) | < 50
– | CCNC(=O)Nc1ccc(-c2cncc(NC(C)c3cccnc3)n2)cc1OC (configuration not stated) | < 50
> 50 | COc1cc(-c2cncc(N[C@@H](C)c3ccccc3)c2)ccc1O | > 50
> 50 | CCCC(Nc1cncc(-c2ccc(OCCCCN3CCN(C)CC3)c(OC)c2)n1)c1ccccc1 (configuration not stated) | > 50
– | CCCC(Nc1cncc(-c2ccc(NC(=O)N3CCN(C)CC3)c(OC)c2)n1)c1cccnc1 (configuration not stated) | > 50
– | CCCC(Nc1cncc(-c2cc(OC)c(OC)c(OC)c2)c1)c1ccccc1 (configuration not stated) | > 50
– | CCCC(Nc1cncc(-c2ccc(C(=O)NCCN(C)C)cc2)n1)c1ccccc1 (configuration not stated) | < 50
– | CCCC(Nc1cncc(-c2ccc(C(=O)N3CCOCC3)cc2)n1)c1ccccc1 (configuration not stated) | < 50
– | CCCC(Nc1cncc(-c2ccc(NC(=O)NCCCN(CC)CC)c(OC)c2)n1)c1cccnc1 (configuration not stated) | < 50
– | CCCC(Nc1cncc(-c2ccc(OCCCN3CCCC3)c(OC)c2)n1)c1cccnc1 (configuration not stated) | < 50
– | CCCC(Nc1cncc(-c2ccc(NC(=O)C3CCNCC3)c(OC)c2)n1)c1cccnc1 (configuration not stated) | < 50
> 50 | COc1cc(-c2cncc(N[C@@H](C)c3ccccc3)n2)ccc1O | –
– | CCCC(Nc1cncc(-c2ccc(CN(C)C)cc2)n1)c1ccccc1 (configuration not stated) | < 50
– | CCCC(Nc1cncc(-c2ccc(OCCCCN3CCOCC3)c(OC)c2)n1)c1ccccc1 (configuration not stated) | < 50
– | CCCC(Nc1cncc(-c2ccc(OCCCN3CCN(C)CC3)c(OC)c2)n1)c1cccnc1 (configuration not stated) | < 50
